# Experimental data taken from patent US10889849B2, “Oxidized glutathione assay” (PROMEGA CORPORATION, priority 2010, dated 2021).
# Assays:
# [1] = numerous reports (Srivastava et al. 2010); leading to cell death by apoptosis or necrosis; cited from earlier work
# GST P = GST P (Homo sapiens, UniProt P09211); test: Fluorescent detection of glutathione using Coumarin derivatives, GST P; assay type: biochemical; details: images at 1, 3, 5 and 20 minutes post GST enzyme addition
# Method: (§1) A Prionex® solution was made by mixing 200 μl of 10% Prionex® (Sigma) with 9.8 ml of 10 mM potassium phosphate buffer, pH 7.4, and 75 μl added to all wells of a 96-well, microtiter plate (“sample plate”). Stock solutions (2 mg/ml) of the GST enzymes GST (Promega Corp. V689B), GST A, GST B, and GST P (purified to have less than 1 mole of GSH per mole of protein) were diluted by addition of 12 ul of the enzyme to 150 ul of 10 mM Potassium Phosphate buffer pH 7.4/Prionex solution. These diluted stocks were then added to the wells. 75 ul of the diluted stocks were added to the wells in row A, and 75 ul transferred from row A through to row H to generate 1:1 serially diluted enzyme solutions.
# (§2) To a different, 96-well microtiter plate, 25 μl of diluted PBI 4153 (25 μl 1 mg/ml solution of PBI 4153 with 5 ml of 10 mM potassium phosphate pH 7.4) was added to wells A1-H10 of the plate (“4153”). […]
# (§3) If one or more of the GST enzyme forms can catalyze the Coumarin compound in the presence of glutathione, the samples containing a GST enzyme form will have an increase in fluorescence. The better the GST enzyme form can utilize the Coumarin derivative, the more rapid the increase in fluorescence, and the lower the concentrations of GST enzyme needed to be able to produce a substantial increase in fluorescence over time.
# GST M = test: Fluorescent detection of glutathione using Coumarin derivatives, GST M; assay type: biochemical; details: images at 1, 3, 5 and 20 minutes post GST enzyme addition
# GST A = test: Fluorescent detection of glutathione using Coumarin derivatives, GST A; assay type: biochemical; details: images at 1, 3, 5 and 20 minutes post GST enzyme addition
# Method: as §1, §2, §3
# [2] = Fluorescent detection using Coumarin derivatives, control wells with only buffer (no GST); assay type: biochemical; details: reduced glutathione present, 1, 3, 5 and 20 minutes
# Method: as §1, §2, §3
# [3] = target: T1, GST (Promega Corp. V689B) (Schistosoma japonicum, UniProt P08515); test: Fluorescent detection of glutathione using Coumarin derivatives, GST from Promega; assay type: biochemical; details: images at 1, 3, 5 and 20 minutes post GST enzyme addition
# T1 construct: purchased Promega Corp. V689B
# Method: as §1, §2, §3
# GST (Promega) = target: T2, GST (Promega) (Schistosoma japonicum, UniProt P08515); test: GSSG measurement with other luciferin derivatives (luminescence); assay type: biochemical; details: GSSG 0.0 μM, luminescence without GSSG subtracted
# T2 construct: purchased Promega
# T2 sequence (P08515 whole entry): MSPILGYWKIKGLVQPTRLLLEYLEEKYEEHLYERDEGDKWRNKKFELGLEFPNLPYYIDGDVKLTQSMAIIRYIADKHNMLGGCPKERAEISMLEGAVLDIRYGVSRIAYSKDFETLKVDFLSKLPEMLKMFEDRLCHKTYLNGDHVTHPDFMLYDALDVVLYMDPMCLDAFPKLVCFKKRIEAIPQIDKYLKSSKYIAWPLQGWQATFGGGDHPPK
# Method: Oxidized glutathione was serially diluted from a 10 mM stock in water to 0, 0.1, 0.5 and 2.5 uM into three different 96-well luminometer plates with duplicate reactions performed. A 30 μl sample of the GST 30 stock was diluted to 3 ml with GSH Glo Reaction Buffer (Promega), and 25 μl added to one of the plates (“30”). A 30 μl sample of GST 28 was diluted to 3 ml with GSH Glo Reaction Buffer, and 25 μl added to a second plate (“28”). A 110 μL sample of GST-22 was diluted to 3 ml with GSH Glo Reaction Buffer, and 25 μl added to the third plate (“GST-22” or “NT”). 50 μl of GSH Glo Reaction Buffer was then added to half the samples of each plate. 25 μl GSH Glo Reaction Buffer with DTT (150 μl of 100 mM DTT to 15 ml of GSH Glo Reaction Buffer) was added to the other half of the samples in each of the plates.
# A 60 μl sample of GST (Promega) was diluted to 1 ml with GSH Glo Reaction Buffer, and 50 μl added to duplicate columns of each plate. […] The resulting luminescence was collected, and the duplicates averaged. The luminescence measured in the absence of GSSG was subtracted from that of the three GSSG concentrations, and the resulting values are presented in Table 6.
# S. japonica GST (Sigma) = target: T3, S. japonica GST (Sigma) (Schistosoma japonicum, UniProt P08515); test: Two step luminescent test of GST-3 as GST substrate, S. japonica GST; assay type: biochemical
# T3 construct: purchased Sigma
# T3 sequence (P08515 whole entry): as above
# Method: (§4) In the first step, GST-3 was added to a mixture containing a GST enzyme with or without glutathione. At different times after reaction initiation, a portion of the reaction was mixed with a luciferase reaction mixture. Reactions in which light production increased over time indicate that the derivative, GST-3, is a substrate for GST and can be used in an assay to detect GST and/or reduced glutathione (GSH).
# (§5) Various GST enzyme forms were used to test the use of GST-3 as a substrate for GST to detect GST or GSH. All components except for the GST enzyme were added.
# [4] = Two step luminescent test of GST-3, reactions without GST enzyme; assay type: biochemical
# Method: as §4, §5
# equine GST (Sigma) = test: Two step luminescent test of GST-3 as GST substrate, equine GST; assay type: biochemical
# Method: as §4, §5
# porcine GST (Sigma) = test: Two step luminescent test of GST-3 as GST substrate, porcine GST; assay type: biochemical
# Method: as §4, §5
# Sequence of GST P (P09211 whole entry): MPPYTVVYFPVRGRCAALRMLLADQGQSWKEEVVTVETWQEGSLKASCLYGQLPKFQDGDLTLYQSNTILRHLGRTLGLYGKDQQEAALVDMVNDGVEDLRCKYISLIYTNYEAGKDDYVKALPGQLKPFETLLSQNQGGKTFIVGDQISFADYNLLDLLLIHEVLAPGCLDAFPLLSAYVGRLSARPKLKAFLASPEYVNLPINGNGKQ
structure (smiles),measurement,setting,value
NNC(=O)c1ccncc1 [isoniazid],Effect on the ratio of GSH to GSSG,[1],dramatically reduce the ratio of GSH to GSSG
Cc1cc(=O)oc2cc(OS(=O)(=O)c3ccc([N+](=O)[O-])c4ccccc34)ccc12 [PBI 4153],Utilization of the Coumarin compound (increase in fluorescence),GST P,"either did not utilize this compound or utilized it at a very, very slow rate"
same,Utilization of the Coumarin compound (increase in fluorescence),GST M,can rapidly utilize the Coumarin compound as a substrate
same,Utilization of the Coumarin compound (increase in fluorescence),GST A,"can also utilize the compound, but at a slower rate"
same,Increase in fluorescence in control wells,[2],no apparent increase in fluorescence
same,Utilization of the Coumarin compound (increase in fluorescence),[3],also utilized the compound but at an even slower rate than GST A
CC(=O)Nc1ccc(O)cc1 [acetaminophen],Effect on the ratio of GSH to GSSG,[1],dramatically reduce the ratio of GSH to GSSG
Cc1cc(=O)oc2cc(OS(=O)(=O)c3ccc([N+](=O)[O-])cc3)ccc12 [PBI 4146],Utilization of the Coumarin compound (increase in fluorescence),GST P,"either did not utilize this compound or utilized it at very, very slow rate"
same,Utilization of the Coumarin compound (increase in fluorescence),GST M,can rapidly utilize the Coumarin compound
same,Utilization of the Coumarin compound (increase in fluorescence),GST A,"either did not utilize this compound or utilized it at very, very slow rate"
same,Increase in fluorescence in control wells,[2],no apparent increase in fluorescence
same,Utilization of the Coumarin compound (increase in fluorescence),[3],"can also utilize the compound, but at an even slower rate than GST M"
CC/C(=C(\c1ccccc1)c1ccc(OCCN(C)C)cc1)c1ccccc1 [tamoxifen],Effect on the ratio of GSH to GSSG,[1],dramatically reduce the ratio of GSH to GSSG
"Cc1ccc(S(=O)(=O)Oc2ccc3nc(C4=N[C@@H](C(=O)O)CS4)sc3c2)c([N+](=O)[O-])c1 [GST-22, Luciferin 2-nitro-4-methylbenzenesulfonate]","Luminescence, GST with DTT",GST (Promega); GST with DTT,0
same,"Luminescence, No DTT",GST (Promega); without enzyme and DTT,0
same,"Luminescence, With DTT",GST (Promega); without enzyme but with DTT,0
"O=C(O)[C@H]1CSC(c2ccc3cc(Oc4ccc(C(F)(F)F)cc4[N+](=O)[O-])ccc3n2)=N1 [GST-3, 6-(2 nitro-4-trifluoromethyl-phenoxy)quinolinyl-luciferin]",Luminescence values (RLUs),"S. japonica GST (Sigma); reaction 3: S. japonica GST, no glutathione, 0.1 minutes",32.67 RLUs
same,Luminescence values (RLUs),"S. japonica GST (Sigma); reaction 3: S. japonica GST, no glutathione, 5 minutes",32.42 RLUs
same,Luminescence values (RLUs),"S. japonica GST (Sigma); reaction 3: S. japonica GST, no glutathione, 10 minutes",38.65 RLUs
same,Luminescence values (RLUs),"S. japonica GST (Sigma); reaction 3: S. japonica GST, no glutathione, 15 minutes",33.82 RLUs
same,Luminescence values (RLUs),"S. japonica GST (Sigma); reaction 4: S. japonica GST with glutathione, 0.1 minutes",32.57 RLUs
same,Luminescence values (RLUs),"S. japonica GST (Sigma); reaction 4: S. japonica GST with glutathione, 5 minutes",40.79 RLUs
same,Luminescence values (RLUs),"S. japonica GST (Sigma); reaction 4: S. japonica GST with glutathione, 10 minutes",48.64 RLUs
same,Luminescence values (RLUs),"S. japonica GST (Sigma); reaction 4: S. japonica GST with glutathione, 15 minutes",61.54 RLUs
same,Luminescence values (RLUs),"[4]; reaction 1: no GST, no glutathione, 0.1 minutes",33.26 RLUs
same,Luminescence values (RLUs),"[4]; reaction 1: no GST, no glutathione, 5 minutes",38.2 RLUs
same,Luminescence values (RLUs),"[4]; reaction 1: no GST, no glutathione, 10 minutes",32.17 RLUs
same,Luminescence values (RLUs),"[4]; reaction 1: no GST, no glutathione, 15 minutes",35.53 RLUs
same,Luminescence values (RLUs),"[4]; reaction 2: no GST, with glutathione, 0.1 minutes",35.72 RLUs
same,Luminescence values (RLUs),"[4]; reaction 2: no GST, with glutathione, 5 minutes",36.07 RLUs
same,Luminescence values (RLUs),"[4]; reaction 2: no GST, with glutathione, 10 minutes",40.85 RLUs
same,Luminescence values (RLUs),"[4]; reaction 2: no GST, with glutathione, 15 minutes",46.43 RLUs
same,Luminescence values (RLUs),"equine GST (Sigma); reaction 7: equine GST, no glutathione, 0.1 minutes",30.42 RLUs
same,Luminescence values (RLUs),"equine GST (Sigma); reaction 7: equine GST, no glutathione, 5 minutes",32.98 RLUs
same,Luminescence values (RLUs),"equine GST (Sigma); reaction 7: equine GST, no glutathione, 10 minutes",38.75 RLUs
same,Luminescence values (RLUs),"equine GST (Sigma); reaction 7: equine GST, no glutathione, 15 minutes",38.39 RLUs
same,Luminescence values (RLUs),"equine GST (Sigma); reaction 8: equine GST with glutathione, 0.1 minutes",252.2 RLUs
same,Luminescence values (RLUs),"equine GST (Sigma); reaction 8: equine GST with glutathione, 5 minutes",3662 RLUs
same,Luminescence values (RLUs),"equine GST (Sigma); reaction 8: equine GST with glutathione, 10 minutes",7629 RLUs
same,Luminescence values (RLUs),"equine GST (Sigma); reaction 8: equine GST with glutathione, 15 minutes",9324 RLUs
same,Luminescence values (RLUs),"porcine GST (Sigma); reaction 5: porcine GST, no glutathione, 0.1 minutes",46.95 RLUs
same,Luminescence values (RLUs),"porcine GST (Sigma); reaction 5: porcine GST, no glutathione, 5 minutes",51.85 RLUs
same,Luminescence values (RLUs),"porcine GST (Sigma); reaction 5: porcine GST, no glutathione, 10 minutes",51.15 RLUs
same,Luminescence values (RLUs),"porcine GST (Sigma); reaction 5: porcine GST, no glutathione, 15 minutes",48.41 RLUs
same,Luminescence values (RLUs),"porcine GST (Sigma); reaction 6: porcine GST with glutathione, 0.1 minutes",71.1 RLUs
same,Luminescence values (RLUs),"porcine GST (Sigma); reaction 6: porcine GST with glutathione, 5 minutes",269.1 RLUs
same,Luminescence values (RLUs),"porcine GST (Sigma); reaction 6: porcine GST with glutathione, 10 minutes",463.2 RLUs
same,Luminescence values (RLUs),"porcine GST (Sigma); reaction 6: porcine GST with glutathione, 15 minutes",619.3 RLUs
